Measurements taken from PubChem BioAssay (NCI).
Values joined by “and” are separate entries in the source; they are usually repeats but may differ in a detail not shown here. Equal entries are not always repeated.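 Each compound was tested at five concentrations against cells in 96-well plates for 48 hours. At the GI50, growth is halved. TGI: total growth inhibition.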

What was measured:
Test in all cases: DTP human tumour cell line panel, 48 h
BT-549 breast = test system: BT-549 breast
DU-145 prostate = test system: DU-145 prostate
HS 578T breast = test system: HS 578T breast
K-562 leukemia = test system: K-562 leukemia
MDA-MB-231 breast = test system: MDA-MB-231 breast
NCI/ADR-RES ovarian = test system: NCI/ADR-RES ovarian
PC-3 prostate = test system: PC-3 prostate
SK-OV-3 ovarian = test system: SK-OV-3 ovarian
SR leukemia = test system: SR leukemia
UACC-257 melanoma = test system: UACC-257 melanoma

Row | Structure (SMILES) | GI50 (BT-549 breast) [µM] | TGI (BT-549 breast) | GI50 (DU-145 prostate) | TGI (DU-145 prostate) | GI50 (HS 578T breast) | TGI (HS 578T breast) | GI50 (K-562 leukemia) | TGI (K-562 leukemia) | GI50 (MDA-MB-231 breast) | TGI (MDA-MB-231 breast) | GI50 (NCI/ADR-RES ovarian) | TGI (NCI/ADR-RES ovarian) [µM] | GI50 (PC-3 prostate) | TGI (PC-3 prostate) | GI50 (SK-OV-3 ovarian) | TGI (SK-OV-3 ovarian) | GI50 (SR leukemia) [µM] | TGI (SR leukemia) | GI50 (UACC-257 melanoma) | TGI (UACC-257 melanoma)
1 | Cc1cc(Nc2cc(CN3CCOCC3)c3nc(C)c(Cc4ccc(Cl)cc4F)n3n2)n[nH]1 | 1.73 | 8.92 µM | 1.24 µM | 11.5 µM | 0.915 µM | 5.6 µM | 0.473 µM | 13.6 µM | 1.57 µM | 5.65 µM | 4.28 µM | 18.7 | 2.07 µM | 18.3 µM | 2.02 µM | 6.38 µM | 0.282 | 1.53 µM | 3.35 µM | 16.2 µM
2 | COc1ccc(S(=O)(=O)NC2=NCCN2C(=S)SN2CCn3c2nsc3=S)cc1OC | 30.9 | > 100 µM | 41 µM | > 100 µM | 28.4 µM | > 100 µM | 27.4 µM | > 100 µM | 26.3 µM | > 100 µM | 61.8 µM | > 100 | 27.1 µM | 94 µM | 21.9 µM | 55.2 µM | 22.6 | > 100 µM | 25.1 µM | 82.9 µM
3 | COc1ccc2[nH]c3c(C)c4cc[n+](C)cc4c(C)c3c2c1 | 0.733 | 5.18 µM and 4.97 µM and 1.79 µM | 2.1 µM and 0.44 µM and 0.691 µM | 37.7 µM and 5.13 µM |  | 1.13 µM and 0.759 µM | 2 µM [middle of 4 runs] |  | 6.34 µM and 1.89 µM and 7.41 µM | 53 µM and 133 µM | 7.91 µM and 8.4 µM |  |  | 99.3 µM and > 250 µM | 4.31 µM and 1.57 µM |  |  | 49.1 µM and > 209 µM | 6.27 µM and 5.41 µM | 54.5 µM [middle of 4 runs]
4 | COc1cc(-c2cc(-c3nc4cc(Cl)c(Cl)cc4[nH]3)[nH]n2)cc(OC)c1OC | 2.84 | 8.02 µM | 4.16 µM | 15.2 µM | 4.53 µM | > 100 µM | 3.3 µM | 24.9 µM | 4.14 µM | 20.1 µM | 3.25 µM | > 100 | 2.2 µM | 7.89 µM | 17.3 µM | 53 µM | 3.89 | 20.6 µM | 3.77 µM | 14.3 µM
5 | CC(C)(C)OC(=O)N1CC(Cn2cc(C(F)(F)F)c3c(Cl)ncnc32)C1 | 1.62 | 3.06 µM | 1.79 µM | 3.18 µM | 2.36 µM | 6.55 µM | 2.81 µM | > 100 µM | 6.92 µM | 23.4 µM | 13.9 µM | 65.4 | 1.76 µM | 3.5 µM | 2.91 µM | 8.21 µM | 0.726 | > 100 µM | 2.2 µM | 5.43 µM
6 | S=c1nc[nH]c2nc[nH]c12 |  | > 750 µM | 0.825 µM and 3.96 µM | > 750 µM | 9.62 µM and 30.8 µM | > 100 µM and 561 µM and > 612 µM | 3.34 µM | 446 µM and 251 µM |  | > 100 µM and 694 µM and > 750 µM |  | > 735 | 7.96 µM and 18.7 µM | > 750 µM | 0.629 µM and 5.06 µM | > 100 µM and 448 µM and > 750 µM | 0.43 | 72.7 µM and 239 µM | > 100 µM and 43.7 µM | > 750 µM
7 | O=C1c2ccc3c4c(ccc(c24)C(=O)N1CCCNCc1ccccc1)C(=O)N(CCCNCc1ccccc1)C3=O | 0.451 | 0.889 µM | 0.156 µM | 0.297 µM | 0.531 µM | 3.24 µM | 0.136 µM | 0.778 µM | 0.238 µM | 0.917 µM | 0.236 µM | 0.779 | 0.203 µM | 0.622 µM | 0.285 µM | 0.82 µM | 0.0756 | 0.505 µM | 0.199 µM | 0.386 µM
8 | COc1cc(/C=C2\CCCC3C2=Nc2ccccc2NC3c2cc(OC)c(OC)c(OC)c2)cc(OC)c1OC (stereo unspecified) | 1.58 | 5.5 µM | 1.87 µM | 6.8 µM | 4.75 µM | > 100 µM | 2.1 µM | 10.3 µM | 2.9 µM | 25 µM | 0.957 µM | > 100 | 2.69 µM | > 100 µM | 4.87 µM | > 100 µM | 0.723 | 3.14 µM | 1.3 µM | 6.77 µM
9 | COc1ccc(C2=CC(c3ccc(Oc4ccnc5cc(Cl)ccc45)c(OC)c3)c3c(nc(OC)[nH]c3=O)N2)cc1 (stereo unspecified) | 3.99 | > 100 µM | 10.3 µM | > 100 µM | 7.04 µM | > 100 µM | 3.73 µM | > 100 µM | 8.62 µM | > 100 µM | 9.88 µM | > 100 | 6.29 µM | > 100 µM | > 100 µM | > 100 µM | 2.91 | 64.6 µM | 26.4 µM | > 100 µM
10 | COc1ccc2[nH]c(-c3ccccc3)c(C=C(C#N)C#N)c2c1 | 2.17 | > 100 µM | 6.52 µM | > 100 µM | 2.35 µM | 25.4 µM | 2.07 µM | > 100 µM | 3.8 µM | > 100 µM | 2.79 µM | 14 | 5.37 µM | > 100 µM | 4.82 µM | 35.8 µM | 0.865 | 3.29 µM | 30 µM | > 100 µM
11 | O=C(C[C@@]1(O)C(=O)Nc2c(Cl)ccc(Cl)c21)c1ccc(C2CC2)cc1 | 0.445 | 11.7 µM | 0.492 µM | 17.1 µM | 0.305 µM | 10 µM | 0.05 µM | > 51.7 µM | 0.798 µM | 15.2 µM | 0.212 µM | 13.9 | 0.434 µM | 20 µM | 0.613 µM | 39.1 µM | 0.0527 | 15.4 µM | 12.4 µM | 41.1 µM
12 | OC(COc1cccc2ccccc12)CN1CCN(c2ccc(Cl)cc2)CC1 (stereo unspecified) | > 100 | > 100 µM | 38.9 µM | > 100 µM | 23.4 µM | > 100 µM | > 100 µM | > 100 µM | 19.5 µM | 69 µM | 16.4 µM | 61.1 | 15.3 µM | 46.2 µM | 14.7 µM | 45.2 µM | > 100 | > 100 µM | 42.3 µM | > 100 µM
13 | CN(C)c1ccc(/C=C/c2ccnc3ccc4ccccc4c23)cc1 |  | > 100 µM |  | > 100 µM |  | > 100 µM |  | > 100 µM |  | > 100 µM |  | > 100 |  | > 100 µM |  | > 100 µM |  | > 100 µM |  | > 100 µM
14 | FC(F)(F)c1[nH]ncc1-c1nc2c(N3CCCCC3)cc3[nH]ncc3c2c2c1CCCC2 | 0.643 | 1.37 µM | 0.702 µM | > 13 µM | 0.603 µM | 2 µM | 1.04 µM | > 50 µM | 0.806 µM | 3.08 µM | 2.04 µM | > 50 | 0.91 µM | > 13.8 µM | 0.523 µM | 4.22 µM | 0.235 | > 50 µM | 1.09 µM | 3.58 µM
15 | Cc1cc(S(N)(=O)=O)c(S/C(=N\Nc2ccc([N+](=O)[O-])cc2)c2ccc(O)cc2)cc1Cl | 7.68 | 22.7 µM | 5.31 µM | 23.9 µM | 2.92 µM | 9.27 µM | 2.7 µM | > 100 µM | 1.78 µM | 4.67 µM | 2.64 µM | 8.57 | 3.26 µM | 8.55 µM | 4.32 µM | 18.4 µM | 51.6 | > 100 µM | 5.22 µM | 19.3 µM
